Data from patent US12410323B2, “Potent antifouling agents albofungins target multiple fouling organisms” (The Hong Kong University of Science and Technology, priority 2021, dated 2025).
Values after ≈ are worked out from the molar mass of the structure shown.

Tests used:
[1] = Anti-larval settlement bioassay, bryozoan; format: in vivo, Bugula neritina; conditions: Bugula neritina (bryozoan), larvae, in vivo; larval mortality, 3 h
Experimental: (§1) A. amphitrite adults were collected from Pak Sha Wan Pier, Hong Kong (22° 38′N, 114° 28′E) and after keeping in the dark for 24 h, a light source was used to stimulate the larval release. Within 1 h, the larvae were collected and cultured in 0.22 μm filtered seawater with a daily diet of Chaetoceros gracilis Schutt at 1×10^6 cells mL^−1 until their growth into cyprids, which were used for the anti-larval settlement bioassay. The bryozoan B. neritina adults were collected from a fish farm in Pak Shek Kok, Hong Kong (22° 43′N, 114° 20′E) and kept in flow-through seawater for no more than 7 days before use. The larvae were released within 30 minutes before the bioassay as described (Xu et al., 2010). The bioassay was conducted in a 24-well polystyrene tissue culture plate with 15-20 larvae in each well. 0.1% of DMSO in filtered seawater (FSW), and 0.625, 1.25, 2.5, 5, 10, 20, and 40 μg mL^−1 albofungin concentrations were tested in triplicate. In each well, 1 mL of FSW containing 15-20 larvae and 1 mL of albofungin solution of different concentrations. The plate was kept for 48 h at 25° C. (bryozoan B. neritina larvae were kept for 3 h). The wells with 0.1% of DMSO in FSW served as a negative control, and butenolide was used as a positive control. The number of attached, swimming, and dead larvae were counted under an Olympus optical microscope (Olympus Corporation, Tokyo, Japan). The settlement rate was calculated as the ratio of settled larvae to the total number of larvae in each well, and the death rate was calculated as the ratio of dead or missing larvae to the total number of larvae in each well. Half maximal effective concentration (EC50) and half lethal concentration (LC50) were determined for each compound, and the ratio of LC50/EC50 was used to evaluate the toxicity of the antifoulant. Experiments were performed in triplicate. Data were analyzed by one-way ANOVA to detect significant differences in the larval settlement, and SD was calculated by GraphPad Prism 9.

[2] = system: bryozoan Bugula neritina larvae; test: Anti-larval settlement bioassay, bryozoan; format: in vivo
Experimental: as §1

Escherichia coli k12 = test: Biofilm inhibition assay (MTT), pathogenic bacteria; format: cell-based; conditions: lowest concentration inhibiting 90% of biofilm formation
Experimental: (§2) The ability of the bacteria to form static biofilms was tested. Marine bacteria were cultured overnight in marine broth at 22° C. with 220 rpm agitation (Pseudomonas pachastrellae MCCC 1A01390, Sulfitobacter pontiacus MCCC 1A04899 and Psychrobacter nivimaris MCCC 1A 11723) and at 30° C. (Staphylococcus aureus B04, Staphylococcus sp. Z01 and Micrococcus sp. Z02) and then diluted to 10^7 CFU mL^−1 in marine broth supplemented with 1% of glucose; pathogenic bacteria was cultured overnight in LB broth with 1% glucose with 220 rpm at 37° C. Afterwards, 200 μL of the diluted solution were added to each well of a 96-well plate (Corning Inc., New York, USA) and was then incubated at 22° C. or 30° C. for 24 h. The culture medium, planktonic cells and loosely adhered bacteria were removed by dual washing with a phosphate-buffered saline (PBS) buffer, and the firmly attached bacteria were incubated with 20 μL of MTT (5 mg mL^−1) at 37° C. for 3 h. The supernatant was discarded, and formazan was dissolved in 150 μL of DMSO. Absorbance was measured using the Multiskan™ FC microplate photometer (Thermo Fisher Scientific, Waltham, USA) under 570 nm, and MRSA ATCC 43300 was used as a positive control. All the experiments were performed in triplicate.
(§3) The antibacterial activities of albofungins were tested following specific protocols (She et al., 2020). Marine broth was used as the test medium for the marine bacteria, and the MHB broth was used as the test medium for the pathogenic bacteria. The plate was kept at 22° C. or 30° C. overnight, and the minimum inhibitory concentration (MIC) is the lowest concentration that the drug prevents the visible growth of bacteria. The bacteria which have successfully formed biofilms were further used for antibiofilm formation assays. Different concentrations of albofungin compounds were added to each well. Biofilm formation was assessed through the MTT assay as previously described. […] Data were analyzed using one-way ANOVA to detect significant differences and standard deviation (SD) was calculated using GraphPad Prism 9. All the assays were performed in triplicate.

[3] = system: Enterobacter cloacae NRRL-B-425; test: as above; format: cell-based; conditions: lowest concentration inhibiting 90% of biofilm formation
Experimental: as §2, §3

[4] = system: Acinetobacter baumannii B-65371; test: as above; format: cell-based; conditions: lowest concentration inhibiting 90% of biofilm formation
Experimental: as §2, §3

[5] = Release rate of albofungin from coatings into artificial seawater (HPLC); format: physicochemical; conditions: for highest release rate: first day, artificial seawater
Experimental: Around 1 g of albofungin compound was isolated, purified and analyzed using HPLC to guarantee over 95% purity. Albofungin-based hydrolysable and degradable copolymer coating was prepared as follows: methyl methacrylate (MMA) and tributylsilyl methacrylate (TBSM) copolymer (PMSMO) was synthesized via radical ring-opening polymerization (Zhou et al., 2015). For 5 wt % of albofungin-based coating, 0.95 g of PMSMO and 0.05 g of albofungin were dissolved in xylene and tetrahydrofuran (v:v=1:2) and mixed vigorously at room temperature. The solution was then coated on the PVC panels (4×7 cm^2) and dried at room temperature for 7 days (Ma et al., 2017). Other coatings with different albofungin concentrations (10 and 15 wt %) were prepared using the same procedure. The coating with PMSMO only was used as a […]. Each concentration was prepared for three biological replicates. The field test was conducted from March to April 2021 in a fish farm at Yung Shue O, Hong Kong (22° 24′N, 114° 21′E), which was heavily fouled all year round. The PVC panel was submerged into seawater at a depth of 0.5 meters for 2 months, retrieved, washed with seawater, and photographed. The area covered by biofoulers was calculated by Image J (Fiji-2.2.0) (Schindelin, et al., 2012). One-way ANOVA was used to compare the albofungin-coated panels and the control panels. The release rate of albofungin under static conditions was determined by measuring the compound concentration with HPLC. Albofungin-based coatings were applied onto a PVC panel (20×75 mm^2) and submerged in artificial seawater (ASW). After 7 days, the panel was transferred to an individual container with 100 mL of ASW. After 24 h of immersion, 10 mL of the seawater was taken out of the container and extracted with the same volume of ethyl acetate three times. After drying under the SpeedVac vacuum concentrators, the extracts were dissolved in 100 μL of methanol and then subjected to HPLC using a reversed-phase system (Waters 2695) with a Phenomenex Luna C18 column connected to a UV detector at 300 nm. The unique UV absorption of albofungin and retention time were determined, with the amount being calculated from the established standard curves using peak areas plotted against known standard quantities.

Staphylococcus aureus 04 [6] = test: Bacterial growth inhibition (antibacterial assay, MIC); format: cell-based; conditions: marine broth, overnight
Experimental: as §3

Micrococcus sp. Z02 [7] = test: as above; format: cell-based; conditions: marine broth, overnight
Experimental: as §3

Staphylococcus sp. Z01 [8] = test: as above; format: cell-based; conditions: marine broth, overnight
Experimental: as §3

[9] = system: MCCC 1A04899 Sulfitobacter pontiacus; test: as above; format: cell-based
Experimental: as §3

[10] = system: MCCC 1A11723 Psychrobacter nivimaris; test: as above; format: cell-based; conditions: marine broth, overnight
Experimental: as §3

[11] = system: MCCC 1A01390 Pseudomonas pachastrellae; test: as above; format: cell-based; conditions: Halopseudomonas pachastrellae; marine broth, overnight
Experimental: as §3

[12] = system: barnacle Amphibalanus amphitrite larvae; test: Anti-larval settlement bioassay, barnacle; format: in vivo; conditions: for EC50: Amphibalanus amphitrite, 48 h; for settlement rate compared with control group (0.1% DMSO in FSW): after 48 h of incubation; for LC50/EC50: ratio used to evaluate toxicity of the antifoulant
Experimental: as §1

[13] = Anti-larval settlement bioassay, barnacle; format: in vivo, Amphibalanus amphitrite; conditions: Amphibalanus amphitrite (barnacle), cyprid larvae, in vivo; larval mortality, 48 h at 25° C.
Experimental: as §1

MRSA ATCC 43300 = test: Biofilm inhibition assay (MTT), pathogenic bacteria; format: cell-based, Staphylococcus aureus; conditions: lowest concentration inhibiting 90% of biofilm formation
Experimental: as §2
as §3, with “All the assays were performed in triplicate.” left out

Staphylococcus aureus 04 [14] = test: Biofilm inhibition assay (MTT), marine bacteria; format: cell-based; conditions: lowest concentration inhibiting 90% of biofilm formation; 24 h
Experimental: as §2, §3

Micrococcus sp. Z02 [15] = test: Biofilm inhibition assay (MTT), marine bacteria; format: cell-based; conditions: lowest concentration inhibiting 90% of biofilm formation; 24 h
Experimental: as §2, §3

Staphylococcus sp. Z01 [16] = test: Biofilm inhibition assay (MTT), marine bacteria; format: cell-based; conditions: lowest concentration inhibiting 90% of biofilm formation; 24 h
Experimental: as §2, §3

[17] = system: MCCC 1A04899 Sulfitobacter pontiacus; test: Biofilm inhibition assay (MTT), marine bacteria; format: cell-based; conditions: lowest concentration inhibiting 90% of biofilm formation; 24 h
Experimental: as §2, §3

[18] = system: MCCC 1A11723 Psychrobacter nivimaris; test: Biofilm inhibition assay (MTT), marine bacteria; format: cell-based; conditions: lowest concentration inhibiting 90% of biofilm formation; 24 h
Experimental: as §2, §3

[19] = system: MCCC 1A01390 Pseudomonas pachastrellae; test: Biofilm inhibition assay (MTT), marine bacteria; format: cell-based; conditions: lowest concentration inhibiting 90% of biofilm formation; 24 h
Experimental: as §2, §3

Structure (SMILES) | MBIC90 (Escherichia coli k12) [µg/mL] | MBIC90 [3] [µg/mL] | MBIC90 [4] [µg/mL] | MIC (Staphylococcus aureus 04 [6]) [µg/mL] | MIC (Micrococcus sp. Z02 [7]) [µg/mL] | MIC (Staphylococcus sp. Z01 [8]) [µg/mL] | MIC [9] [µg/mL] | MIC [10] [µg/mL] | MIC [11] [µg/mL] | EC50 [12] [µg/mL] | settlement rate compared with control group (0.1% DMSO in FSW) [12] | LC50/EC50 [12] | LC50 at 48 h [13] [µg/mL] | MBIC90 (MRSA ATCC 43300) [µg/mL] | MBIC90 (Staphylococcus aureus 04 [14]) [ng/mL] | MBIC90 (Micrococcus sp. Z02 [15]) [ng/mL] | MBIC90 (Staphylococcus sp. Z01 [16]) [ng/mL] | MBIC90 [17] [µg/mL] | MBIC90 [18] [µg/mL] | MBIC90 [19] [µg/mL] | further results
CO[C@@H]1CC[C@H](O)c2c1oc1c3c4c(c(O)c1c2=O)-c1c(cc2cc(C)n(N)c(=O)c2c1O)C[C@H]4OCO3 [Albofungin (1), albofungin] | 0.63 to 1.25 | 1.25 to 2.5 | 0.06 to 0.13 | 0.0032 (≈ 0.00615 µM) | 0.0032 (≈ 0.00615 µM) | 0.0008 (≈ 0.00154 µM) | 0.032 (≈ 0.0615 µM) | > 20 | 0.5 (≈ 0.961 µM) | 1.6 (≈ 3.07 µM) | significantly lower | 62.5 | > 100 | 0.01 to 0.03 | 15.63 to 31.25 | 31.25 to 62.50 | 0.63 to 1.25 | 0.13 to 0.25 | 10 to 20 | 0.25 to 0.50 | LC50 at 3 h [1]: > 100 µg/mL; larval settlement ([2]; 2.5 μg mL^−1, 3 h): 44% (±9.0%); EC50 ([2]; Bugula neritina, larval settlement, 3 h): 1.9 µg/mL (≈ 3.65 µM); lethal effects ([2]; highest concentration tested): no lethal effects; LC50/EC50 ([2]; ratio used to evaluate toxicity of the antifoulant): 52.6; highest release rate ([5]; 5 wt % albofungin coating): 0.86 μg day-1 cm^−2; highest release rate ([5]; 10 wt % albofungin coating): 1.1 μg day-1 cm^−2; release rate decreased to ([5]; 15, 10 and 5 wt % coatings, time-dependent, within 35 days): approximately 0.08 μg day-1 cm^−2; highest release rate ([5]; 15 wt % albofungin coating): 1.4 μg day-1 cm^−2; larval settlement rate ([12]; 2.5 μg mL^−1, 48 h): 33% (±5.3%); antifouling activity against larval settlement compared with butenolide ([12]; according to the EC50 value): equivalent antifouling activity
Cc1cc2cc3c(c(O)c2c(=O)n1N)-c1c2c(c4oc5c(c(=O)c4c1O)[C@@H](O)CC[C@H]5O)OCO[C@@H]2C3 [Albofungin A (2), albofungin A] | 0.31 to 0.63 | 0.63 to 1.25 | 0.13 to 0.25 | 0.0064 (≈ 0.0126 µM) | 0.0064 (≈ 0.0126 µM) | 0.0008 (≈ 0.00158 µM) | 0.008 (≈ 0.0158 µM) | > 20 | 0.12 (≈ 0.237 µM) | 12.2 (≈ 24.1 µM) | significantly lower | 8.2 | > 100 | 0.01 to 0.03 | 15.63 to 31.25 | 62.5 to 125 | 0.63 to 1.25 | 0.02 to 0.03 | >20 | 0.02 to 0.03 | larval settlement rate ([12]; 20 μg mL^−1, 48 h): 17% (±12.7%)
